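Each compound was tested at five concentrations against cells in 96-well plates for 48 hours. The concentration for full growth arrest is given as TGI.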
Columns and labels:
Experiment in all cases: NCI tumour cell line growth inhibition, 48 h
786-0 renal = test system: 786-0 renal
A549 NSCLC = test system: A549 NSCLC
ACHN renal = test system: ACHN renal
BT-549 breast = test system: BT-549 breast
CAKI-1 renal = test system: CAKI-1 renal
COLO 205 colon = test system: COLO 205 colon
DU-145 prostate = test system: DU-145 prostate
EKVX NSCLC = test system: EKVX NSCLC
HCC-2998 colon = test system: HCC-2998 colon
HCT-116 colon = test system: HCT-116 colon
HCT-15 colon = test system: HCT-15 colon
HL-60(TB) leukemia = test system: HL-60(TB) leukemia
HOP-62 NSCLC = test system: HOP-62 NSCLC
HOP-92 NSCLC = test system: HOP-92 NSCLC
HS 578T breast = test system: HS 578T breast
HT29 colon = test system: HT29 colon
IGROV1 ovarian = test system: IGROV1 ovarian
K-562 leukemia = test system: K-562 leukemia
KM12 colon = test system: KM12 colon
LOX IMVI melanoma = test system: LOX IMVI melanoma
M14 melanoma = test system: M14 melanoma
MALME-3M melanoma = test system: MALME-3M melanoma
MCF7 breast = test system: MCF7 breast
MDA-MB-231 breast = test system: MDA-MB-231 breast
MDA-MB-435 = test system: MDA-MB-435
MDA-N = test system: MDA-N
MOLT-4 leukemia = test system: MOLT-4 leukemia
NCI-H226 lung = test system: NCI-H226 lung
NCI-H23 lung = test system: NCI-H23 lung
NCI-H460 lung = test system: NCI-H460 lung
NCI-H522 lung = test system: NCI-H522 lung
NCI/ADR-RES ovarian = test system: NCI/ADR-RES ovarian
OVCAR-3 ovarian = test system: OVCAR-3 ovarian
OVCAR-4 ovarian = test system: OVCAR-4 ovarian
OVCAR-8 ovarian = test system: OVCAR-8 ovarian
PC-3 prostate = test system: PC-3 prostate
RPMI-8226 leukemia = test system: RPMI-8226 leukemia
RXF 393 renal = test system: RXF 393 renal
SF-268 CNS = test system: SF-268 CNS
SF-295 CNS = test system: SF-295 CNS
SF-539 CNS = test system: SF-539 CNS
SK-MEL-2 melanoma = test system: SK-MEL-2 melanoma
SK-MEL-28 melanoma = test system: SK-MEL-28 melanoma
SK-MEL-5 melanoma = test system: SK-MEL-5 melanoma
SK-OV-3 ovarian = test system: SK-OV-3 ovarian
SN12C renal = test system: SN12C renal
SNB-19 CNS = test system: SNB-19 CNS
SNB-75 CNS = test system: SNB-75 CNS
SW-620 colon = test system: SW-620 colon
T-47D breast = test system: T-47D breast
TK-10 renal = test system: TK-10 renal
U251 CNS = test system: U251 CNS
UACC-257 melanoma = test system: UACC-257 melanoma
UACC-62 melanoma = test system: UACC-62 melanoma
UO-31 renal = test system: UO-31 renal
A498 renal = test system: A498 renal
OVCAR-5 ovarian = test system: OVCAR-5 ovarian
SR leukemia = test system: SR leukemia
CCRF-CEM leukemia = test system: CCRF-CEM leukemia

For O=NN1C(c2ccccc2)CC(=NO)CC1c1ccccc1 (stereo unspecified), the TGI (786-0 renal) was > 100 µM, the TGI (A549 NSCLC) was > 100 µM and the TGI (ACHN renal) was > 100 µM. The TGI (BT-549 breast) was > 100 µM, the TGI (CAKI-1 renal) was > 100 µM and the TGI (COLO 205 colon) was > 100 µM. For the same compound, the TGI (DU-145 prostate) was > 100 µM, the TGI (EKVX NSCLC) was > 100 µM and the TGI (HCC-2998 colon) was > 100 µM. The TGI (HCT-116 colon) was > 100 µM, the TGI (HCT-15 colon) was > 100 µM and the TGI (HL-60(TB) leukemia) was > 100 µM. For the same compound, the TGI (HOP-62 NSCLC) was > 100 µM, the TGI (HOP-92 NSCLC) was > 100 µM and the TGI (HS 578T breast) was > 100 µM. The TGI (HT29 colon) was > 100 µM, the TGI (IGROV1 ovarian) was > 100 µM and the TGI (K-562 leukemia) was > 100 µM. For the same compound, the TGI (KM12 colon) was > 100 µM, the TGI (LOX IMVI melanoma) was > 100 µM and the TGI (M14 melanoma) was > 100 µM. The TGI (MALME-3M melanoma) was > 100 µM, the TGI (MCF7 breast) was > 100 µM and the TGI (MDA-MB-231 breast) was > 100 µM. The TGI (MDA-MB-435) was > 100 µM, the TGI (MDA-N) was > 100 µM and the TGI (MOLT-4 leukemia) was > 100 µM. The TGI (NCI-H226 lung) was > 100 µM, the TGI (NCI-H23 lung) was > 100 µM and the TGI (NCI-H460 lung) was > 100 µM. The TGI (NCI-H522 lung) was > 100 µM, the TGI (NCI/ADR-RES ovarian) was > 100 µM and the TGI (OVCAR-3 ovarian) was > 100 µM. The TGI (OVCAR-4 ovarian) was > 100 µM, the TGI (OVCAR-8 ovarian) was > 100 µM and the TGI (PC-3 prostate) was > 100 µM. The TGI (RPMI-8226 leukemia) was > 100 µM, the TGI (RXF 393 renal) was > 100 µM and the TGI (SF-268 CNS) was > 100 µM. The TGI (SF-295 CNS) was > 100 µM, the TGI (SF-539 CNS) was > 100 µM and the TGI (SK-MEL-2 melanoma) was > 100 µM. The TGI (SK-MEL-28 melanoma) was > 100 µM, the TGI (SK-MEL-5 melanoma) was > 100 µM and the TGI (SK-OV-3 ovarian) was > 100 µM. The TGI (SN12C renal) was > 100 µM, the TGI (SNB-19 CNS) was > 100 µM and the TGI (SNB-75 CNS) was > 100 µM. The TGI (SW-620 colon) was > 100 µM, the TGI (T-47D breast) was > 100 µM and the TGI (TK-10 renal) was > 100 µM. The TGI (U251 CNS) was > 100 µM, the TGI (UACC-257 melanoma) was > 100 µM and the TGI (UACC-62 melanoma) was > 100 µM. For the same compound, the TGI (UO-31 renal) was > 100 µM.
Work on C[C@@]1(O)C[C@@H](N2C(=O)O[C@@H](c3ccccc3)[C@H]2c2ccccc2)[C@@H]1COCc1ccccc1 yielded a TGI (786-0 renal) of 48.9 µM, a TGI (A498 renal) of 52.9 µM and a TGI (A549 NSCLC) of 97.9 µM. For the same compound, the TGI (ACHN renal) was > 100 µM, the TGI (BT-549 breast) was 51.2 µM and the TGI (CAKI-1 renal) was > 100 µM. For the same compound, the TGI (COLO 205 colon) was 36.4 µM, the TGI (DU-145 prostate) was > 100 µM and the TGI (EKVX NSCLC) was 70.3 µM. The TGI (HCC-2998 colon) was 58.4 µM, the TGI (HCT-116 colon) was 47.4 µM and the TGI (HCT-15 colon) was 84.3 µM. The TGI (HL-60(TB) leukemia) was 23.5 µM, the TGI (HOP-62 NSCLC) was 75.3 µM and the TGI (HOP-92 NSCLC) was 89 µM. For the same compound, the TGI (HS 578T breast) was 62.9 µM, the TGI (HT29 colon) was 50.6 µM and the TGI (IGROV1 ovarian) was > 100 µM. For the same compound, the TGI (K-562 leukemia) was > 100 µM, the TGI (KM12 colon) was 74.3 µM and the TGI (LOX IMVI melanoma) was 32.9 µM. For the same compound, the TGI (M14 melanoma) was 30 µM, the TGI (MALME-3M melanoma) was 46.8 µM and the TGI (MCF7 breast) was > 100 µM. For the same compound, the TGI (MDA-MB-231 breast) was 39.8 µM, the TGI (MDA-MB-435) was > 100 µM and the TGI (MDA-N) was 38.5 µM. The TGI (MOLT-4 leukemia) was 26.4 µM, the TGI (NCI-H226 lung) was 42.8 µM and the TGI (NCI-H23 lung) was 43.6 µM. For the same compound, the TGI (NCI-H460 lung) was 68.1 µM, the TGI (NCI-H522 lung) was 38.3 µM and the TGI (NCI/ADR-RES ovarian) was 64.8 µM. For the same compound, the TGI (OVCAR-3 ovarian) was 46.1 µM, the TGI (OVCAR-4 ovarian) was > 100 µM and the TGI (OVCAR-5 ovarian) was 78.2 µM. For the same compound, the TGI (OVCAR-8 ovarian) was 54 µM, the TGI (PC-3 prostate) was 50.3 µM and the TGI (RPMI-8226 leukemia) was 68.8 µM. It also gave a TGI (RXF 393 renal) of 80.2 µM, a TGI (SF-268 CNS) of 48.1 µM and a TGI (SF-295 CNS) of 41.3 µM. For the same compound, the TGI (SF-539 CNS) was 38.4 µM, the TGI (SK-MEL-2 melanoma) was 27.5 µM and the TGI (SK-MEL-28 melanoma) was 44.5 µM. The TGI (SK-MEL-5 melanoma) was 27.2 µM, the TGI (SN12C renal) was 38.5 µM and the TGI (SNB-19 CNS) was > 100 µM. The TGI (SR leukemia) was 52.7 µM, the TGI (SW-620 colon) was > 100 µM and the TGI (TK-10 renal) was 99.7 µM. It also gave a TGI (U251 CNS) of 32.9 µM, a TGI (UACC-257 melanoma) of 36.7 µM and a TGI (UACC-62 melanoma) of 31.5 µM. The TGI (UO-31 renal) was 67.8 µM.
For CCCCCC(C/C=N/N(C)C)C(O)(C(F)(F)F)C(F)(F)F (stereo unspecified), the TGI (786-0 renal) was > 100 µM, the TGI (A498 renal) was 56 µM and the TGI (A549 NSCLC) was > 100 µM. For the same compound, the TGI (ACHN renal) was 52.7 µM, the TGI (CAKI-1 renal) was > 100 µM and the TGI (CCRF-CEM leukemia) was 62.7 µM. For the same compound, the TGI (COLO 205 colon) was 30.5 µM, the TGI (DU-145 prostate) was > 100 µM and the TGI (EKVX NSCLC) was > 100 µM. For the same compound, the TGI (HCC-2998 colon) was > 100 µM, the TGI (HCT-116 colon) was > 100 µM and the TGI (HCT-15 colon) was > 100 µM. For the same compound, the TGI (HL-60(TB) leukemia) was 31.6 µM, the TGI (HOP-62 NSCLC) was > 100 µM and the TGI (HOP-92 NSCLC) was 78.2 µM. The TGI (HS 578T breast) was 91.8 µM, the TGI (HT29 colon) was > 100 µM and the TGI (IGROV1 ovarian) was 74.5 µM. The TGI (K-562 leukemia) was > 100 µM, the TGI (KM12 colon) was 81.6 µM and the TGI (LOX IMVI melanoma) was > 100 µM. The TGI (M14 melanoma) was > 100 µM, the TGI (MALME-3M melanoma) was 67.1 µM and the TGI (MDA-MB-231 breast) was 70.6 µM. The TGI (MDA-MB-435) was > 100 µM, the TGI (MDA-N) was > 100 µM and the TGI (MOLT-4 leukemia) was > 100 µM. For the same compound, the TGI (NCI-H226 lung) was > 100 µM, the TGI (NCI-H23 lung) was > 100 µM and the TGI (NCI-H460 lung) was > 100 µM. For the same compound, the TGI (NCI-H522 lung) was > 100 µM, the TGI (NCI/ADR-RES ovarian) was > 100 µM and the TGI (OVCAR-3 ovarian) was 66.1 µM. For the same compound, the TGI (OVCAR-4 ovarian) was > 100 µM, the TGI (OVCAR-5 ovarian) was > 100 µM and the TGI (OVCAR-8 ovarian) was > 100 µM. For the same compound, the TGI (PC-3 prostate) was > 100 µM, the TGI (RPMI-8226 leukemia) was 60.4 µM and the TGI (RXF 393 renal) was 76.3 µM. The TGI (SF-268 CNS) was > 100 µM, the TGI (SF-295 CNS) was > 100 µM and the TGI (SF-539 CNS) was 82.7 µM. The TGI (SK-MEL-2 melanoma) was > 100 µM, the TGI (SK-MEL-28 melanoma) was > 100 µM and the TGI (SK-MEL-5 melanoma) was 30.7 µM. For the same compound, the TGI (SK-OV-3 ovarian) was > 100 µM, the TGI (SN12C renal) was > 100 µM and the TGI (SNB-19 CNS) was > 100 µM. For the same compound, the TGI (SNB-75 CNS) was 97.4 µM, the TGI (SR leukemia) was > 100 µM and the TGI (SW-620 colon) was > 100 µM. The TGI (T-47D breast) was > 100 µM, the TGI (TK-10 renal) was > 100 µM and the TGI (U251 CNS) was > 100 µM. For the same compound, the TGI (UACC-62 melanoma) was > 100 µM and the TGI (UO-31 renal) was > 100 µM.
